Measured values reported in ChEMBL document CHEMBL1201862, “PubChem BioAssay data set” (2004).
Calls of active or inactive are those of the source.

Assays:
[1] = molecular target: T1, Trace amine-associated receptor 1 (Homo sapiens, UniProt Q96RJ0); assay: Counterscreen for agonists of the human trace amine associated receptor 1 (hTAAR1): Fluorescence-based cell-based high throughput dose response assay to identify hTAAR1 agonist that also desensitize TAAR1 receptor response.; type: functional
T1 sequence (Q96RJ0 whole entry): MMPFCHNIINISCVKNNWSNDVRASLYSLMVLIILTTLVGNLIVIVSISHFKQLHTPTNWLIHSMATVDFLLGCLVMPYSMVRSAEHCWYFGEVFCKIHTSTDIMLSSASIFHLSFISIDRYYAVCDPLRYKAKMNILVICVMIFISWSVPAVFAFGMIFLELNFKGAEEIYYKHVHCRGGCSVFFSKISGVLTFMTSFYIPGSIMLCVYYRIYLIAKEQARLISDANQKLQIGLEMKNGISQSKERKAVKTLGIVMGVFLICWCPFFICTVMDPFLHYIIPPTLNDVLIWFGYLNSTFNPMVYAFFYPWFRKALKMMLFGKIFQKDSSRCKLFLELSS

cells [2] = type: functional, cell-based
cells [3] = type: functional, cell-based; remark: listed apart in the source
[4] = molecular target: T1, Trace amine-associated receptor 1; assay: Fluorescence-based cell-based high throughput dose response assay to identify agonists of the human trace amine associated receptor 1 (TAAR1).; type: functional
[5] = molecular target: T2, DNA repair and recombination protein RAD54-like (Homo sapiens, UniProt Q92698); assay: RAD54 Holliday junction migration blockers – biochemical, fluorescence, cherry-picked samples, dose series, confirmation (AID 651657); type: functional
T2 sequence (Q92698 whole entry): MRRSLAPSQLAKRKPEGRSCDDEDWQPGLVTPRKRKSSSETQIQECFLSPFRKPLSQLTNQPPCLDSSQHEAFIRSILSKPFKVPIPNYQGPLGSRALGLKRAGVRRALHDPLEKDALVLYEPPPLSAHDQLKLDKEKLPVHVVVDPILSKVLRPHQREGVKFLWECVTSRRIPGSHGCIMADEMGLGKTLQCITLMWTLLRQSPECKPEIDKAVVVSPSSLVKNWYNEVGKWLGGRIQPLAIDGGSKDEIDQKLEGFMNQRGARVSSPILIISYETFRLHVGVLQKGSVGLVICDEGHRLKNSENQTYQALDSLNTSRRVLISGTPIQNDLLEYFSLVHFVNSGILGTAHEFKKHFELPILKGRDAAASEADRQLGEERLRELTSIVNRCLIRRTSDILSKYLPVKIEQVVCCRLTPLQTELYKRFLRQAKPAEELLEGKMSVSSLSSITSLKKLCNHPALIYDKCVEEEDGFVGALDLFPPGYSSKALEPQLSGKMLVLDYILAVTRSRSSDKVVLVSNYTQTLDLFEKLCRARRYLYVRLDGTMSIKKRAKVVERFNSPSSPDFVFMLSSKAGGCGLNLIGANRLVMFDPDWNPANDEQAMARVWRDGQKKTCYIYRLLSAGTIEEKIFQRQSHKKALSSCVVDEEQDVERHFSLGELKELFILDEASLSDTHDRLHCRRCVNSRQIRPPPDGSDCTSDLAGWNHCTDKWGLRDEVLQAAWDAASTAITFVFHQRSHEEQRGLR

[6] = molecular target: T3, Sentrin-specific protease 7 (Homo sapiens, UniProt Q9BQF6); assay: inhibition of human SENP7 cleavage activity – biochemical, luminescence, SAR follow-up (AID 504497); type: functional
T3 sequence (Q9BQF6 whole entry): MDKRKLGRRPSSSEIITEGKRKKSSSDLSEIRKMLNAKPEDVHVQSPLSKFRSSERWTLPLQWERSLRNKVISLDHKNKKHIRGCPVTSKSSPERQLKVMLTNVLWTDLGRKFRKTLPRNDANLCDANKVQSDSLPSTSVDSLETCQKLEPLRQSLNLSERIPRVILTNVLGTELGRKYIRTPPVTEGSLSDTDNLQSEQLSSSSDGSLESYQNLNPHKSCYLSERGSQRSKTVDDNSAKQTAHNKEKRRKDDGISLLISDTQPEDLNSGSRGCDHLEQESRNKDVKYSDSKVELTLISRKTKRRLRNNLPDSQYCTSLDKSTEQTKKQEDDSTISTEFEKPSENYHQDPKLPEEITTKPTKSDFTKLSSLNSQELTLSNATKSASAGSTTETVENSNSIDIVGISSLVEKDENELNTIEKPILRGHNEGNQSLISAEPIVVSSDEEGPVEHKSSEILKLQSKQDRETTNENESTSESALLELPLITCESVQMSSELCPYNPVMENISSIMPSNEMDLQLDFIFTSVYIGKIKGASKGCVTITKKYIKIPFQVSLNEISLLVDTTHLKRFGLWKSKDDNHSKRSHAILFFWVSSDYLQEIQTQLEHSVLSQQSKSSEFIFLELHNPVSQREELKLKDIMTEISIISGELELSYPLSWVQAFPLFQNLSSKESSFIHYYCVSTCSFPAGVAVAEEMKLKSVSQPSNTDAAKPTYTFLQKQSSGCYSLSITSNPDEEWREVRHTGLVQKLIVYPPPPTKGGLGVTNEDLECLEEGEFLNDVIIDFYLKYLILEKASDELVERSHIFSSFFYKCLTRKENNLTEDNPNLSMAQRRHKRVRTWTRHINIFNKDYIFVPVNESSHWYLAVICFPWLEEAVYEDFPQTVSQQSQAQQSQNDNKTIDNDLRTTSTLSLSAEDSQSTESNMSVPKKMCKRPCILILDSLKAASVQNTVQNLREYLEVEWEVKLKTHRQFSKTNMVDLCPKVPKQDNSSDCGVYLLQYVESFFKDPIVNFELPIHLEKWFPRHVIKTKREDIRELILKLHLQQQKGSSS

Caspase-3 = molecular target: T4, Caspase-3 (Homo sapiens, UniProt P42574); assay: SAR Analysis of small molecule inhibitors of Sentrin-specific proteases (SENPs) using a Caspase-3 Selectivity assay. [Related pubchem assays (depositor defined):AID2540, AID2599, AID434973, AID489001]; type: functional
T4 sequence (P42574 whole entry): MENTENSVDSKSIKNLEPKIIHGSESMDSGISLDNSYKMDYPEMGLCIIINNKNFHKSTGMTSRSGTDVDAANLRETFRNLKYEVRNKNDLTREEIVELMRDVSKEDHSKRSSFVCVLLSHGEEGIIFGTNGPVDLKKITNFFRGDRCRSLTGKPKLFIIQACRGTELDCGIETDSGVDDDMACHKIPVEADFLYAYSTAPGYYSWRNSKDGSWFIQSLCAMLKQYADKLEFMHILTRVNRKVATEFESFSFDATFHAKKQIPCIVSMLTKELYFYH

[7] = molecular target: T5, Sentrin-specific protease 8 (Homo sapiens, UniProt Q96LD8); assay: inhibition of human SENP8 cleavage activity – biochemical, luminescence, SAR follow-up (AID 504501); type: functional
T5 sequence (Q96LD8 whole entry): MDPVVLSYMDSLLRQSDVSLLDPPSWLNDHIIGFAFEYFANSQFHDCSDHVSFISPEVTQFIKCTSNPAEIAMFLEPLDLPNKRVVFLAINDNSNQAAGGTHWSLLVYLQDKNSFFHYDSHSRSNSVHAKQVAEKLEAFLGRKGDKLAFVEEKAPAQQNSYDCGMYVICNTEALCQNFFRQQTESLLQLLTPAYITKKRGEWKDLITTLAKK

[8] = molecular target: T6, Sentrin-specific protease 6 (Homo sapiens, UniProt Q9GZR1); assay: SAR Analysis of small molecule inhibitors of Sentrin-specific protease 6 (SENP6) using a Luminescent assay. [Related pubchem assays (depositor defined):AID2582, AID2599]; type: functional
T6 sequence (Q9GZR1 whole entry): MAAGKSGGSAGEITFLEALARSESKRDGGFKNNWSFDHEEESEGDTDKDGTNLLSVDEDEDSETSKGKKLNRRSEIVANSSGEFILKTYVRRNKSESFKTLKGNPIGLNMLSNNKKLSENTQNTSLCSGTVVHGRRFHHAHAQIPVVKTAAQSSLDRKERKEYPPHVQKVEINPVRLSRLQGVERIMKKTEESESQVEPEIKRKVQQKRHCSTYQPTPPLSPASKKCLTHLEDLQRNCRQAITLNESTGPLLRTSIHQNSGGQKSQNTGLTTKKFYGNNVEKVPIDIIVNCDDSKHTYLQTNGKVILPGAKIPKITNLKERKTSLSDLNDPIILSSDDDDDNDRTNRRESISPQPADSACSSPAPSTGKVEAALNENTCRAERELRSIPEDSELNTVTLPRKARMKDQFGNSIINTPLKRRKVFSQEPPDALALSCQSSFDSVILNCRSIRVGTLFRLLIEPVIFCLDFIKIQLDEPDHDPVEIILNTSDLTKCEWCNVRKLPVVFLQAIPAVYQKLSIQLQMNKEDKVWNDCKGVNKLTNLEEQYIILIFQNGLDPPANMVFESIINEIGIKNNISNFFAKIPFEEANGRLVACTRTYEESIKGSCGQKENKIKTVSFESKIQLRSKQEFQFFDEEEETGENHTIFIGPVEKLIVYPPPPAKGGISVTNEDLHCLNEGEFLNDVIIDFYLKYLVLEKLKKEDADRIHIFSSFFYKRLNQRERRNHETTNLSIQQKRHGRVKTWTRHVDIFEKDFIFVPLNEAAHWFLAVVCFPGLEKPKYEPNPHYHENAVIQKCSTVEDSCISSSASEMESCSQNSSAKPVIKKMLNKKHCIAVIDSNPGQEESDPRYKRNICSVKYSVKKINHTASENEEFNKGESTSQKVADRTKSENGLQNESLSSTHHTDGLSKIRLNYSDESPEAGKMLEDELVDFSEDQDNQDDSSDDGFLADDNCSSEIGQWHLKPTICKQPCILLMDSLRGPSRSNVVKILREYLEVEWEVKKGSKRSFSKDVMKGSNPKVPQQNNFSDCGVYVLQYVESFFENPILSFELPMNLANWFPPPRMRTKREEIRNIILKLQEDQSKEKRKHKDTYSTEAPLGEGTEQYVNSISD

[9] = viability loss in HeLa cells – cytotoxicity control for MgcRacGAP inhibitor project, dose response (AID 624300); type: functional
[10] = molecular target: Heat shock protein HSP 90-alpha (Homo sapiens, UniProt P07900); type: functional, organism-based
[11] = molecular target: Photoreceptor-specific nuclear receptor (Homo sapiens, UniProt Q9Y5X4); type: functional, cell-based;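 further: CHO-S cells with Gal4-NCOR and VP16-NR2E3 two-hybrid luciferase reporter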
Photoreceptor-specific nuclear receptor, sequence (Q9Y5X4 whole entry, the tested form may be a part): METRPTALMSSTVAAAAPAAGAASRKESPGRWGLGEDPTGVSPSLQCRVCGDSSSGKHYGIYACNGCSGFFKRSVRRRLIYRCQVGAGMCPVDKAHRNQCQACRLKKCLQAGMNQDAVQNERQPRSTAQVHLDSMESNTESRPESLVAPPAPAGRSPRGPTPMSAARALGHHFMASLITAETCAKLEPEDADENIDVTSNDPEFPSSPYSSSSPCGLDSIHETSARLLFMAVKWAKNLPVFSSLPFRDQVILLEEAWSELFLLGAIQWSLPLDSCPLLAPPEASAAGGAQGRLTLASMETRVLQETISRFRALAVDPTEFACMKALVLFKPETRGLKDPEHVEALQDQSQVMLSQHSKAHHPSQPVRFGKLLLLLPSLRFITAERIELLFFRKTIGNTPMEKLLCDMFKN

[12] = molecular target: T7, Rac GTPase-activating protein 1 (Homo sapiens, UniProt Q9H0H5); assay: blockers of MgcRacGAP-driven Rac1 GTP hydrolysis – biochemical, ADP Hunter fluorescence, primary and confirmatory, confirmation (AID 624330); type: functional
T7 sequence (Q9H0H5 whole entry): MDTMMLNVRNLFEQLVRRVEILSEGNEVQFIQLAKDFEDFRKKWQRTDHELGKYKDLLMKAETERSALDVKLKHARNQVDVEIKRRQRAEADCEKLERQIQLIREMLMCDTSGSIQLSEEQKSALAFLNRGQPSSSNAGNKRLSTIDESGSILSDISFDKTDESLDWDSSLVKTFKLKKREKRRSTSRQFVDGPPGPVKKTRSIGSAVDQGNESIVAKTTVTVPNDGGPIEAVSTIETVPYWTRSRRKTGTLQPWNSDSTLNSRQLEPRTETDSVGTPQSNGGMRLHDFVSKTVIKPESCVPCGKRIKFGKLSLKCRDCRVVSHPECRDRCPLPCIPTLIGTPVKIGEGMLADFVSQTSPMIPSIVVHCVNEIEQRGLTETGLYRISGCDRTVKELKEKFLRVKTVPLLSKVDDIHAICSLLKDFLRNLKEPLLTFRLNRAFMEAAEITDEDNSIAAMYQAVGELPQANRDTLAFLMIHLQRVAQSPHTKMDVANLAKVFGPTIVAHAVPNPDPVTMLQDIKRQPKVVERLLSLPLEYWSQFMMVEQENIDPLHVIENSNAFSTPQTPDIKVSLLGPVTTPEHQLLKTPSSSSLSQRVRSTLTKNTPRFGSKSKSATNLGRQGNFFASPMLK

[13] = molecular target: Ras and Rab interactor 1/Tyrosine-protein kinase ABL1 (Homo sapiens, UniProt P00519+Q13671); type: functional;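 further: biochemical TR-FRET dose-response test measuring inhibition of binding between Rin1 and Abl proteins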
Ras and Rab interactor 1/Tyrosine-protein kinase ABL1, sequence (P00519 whole entry): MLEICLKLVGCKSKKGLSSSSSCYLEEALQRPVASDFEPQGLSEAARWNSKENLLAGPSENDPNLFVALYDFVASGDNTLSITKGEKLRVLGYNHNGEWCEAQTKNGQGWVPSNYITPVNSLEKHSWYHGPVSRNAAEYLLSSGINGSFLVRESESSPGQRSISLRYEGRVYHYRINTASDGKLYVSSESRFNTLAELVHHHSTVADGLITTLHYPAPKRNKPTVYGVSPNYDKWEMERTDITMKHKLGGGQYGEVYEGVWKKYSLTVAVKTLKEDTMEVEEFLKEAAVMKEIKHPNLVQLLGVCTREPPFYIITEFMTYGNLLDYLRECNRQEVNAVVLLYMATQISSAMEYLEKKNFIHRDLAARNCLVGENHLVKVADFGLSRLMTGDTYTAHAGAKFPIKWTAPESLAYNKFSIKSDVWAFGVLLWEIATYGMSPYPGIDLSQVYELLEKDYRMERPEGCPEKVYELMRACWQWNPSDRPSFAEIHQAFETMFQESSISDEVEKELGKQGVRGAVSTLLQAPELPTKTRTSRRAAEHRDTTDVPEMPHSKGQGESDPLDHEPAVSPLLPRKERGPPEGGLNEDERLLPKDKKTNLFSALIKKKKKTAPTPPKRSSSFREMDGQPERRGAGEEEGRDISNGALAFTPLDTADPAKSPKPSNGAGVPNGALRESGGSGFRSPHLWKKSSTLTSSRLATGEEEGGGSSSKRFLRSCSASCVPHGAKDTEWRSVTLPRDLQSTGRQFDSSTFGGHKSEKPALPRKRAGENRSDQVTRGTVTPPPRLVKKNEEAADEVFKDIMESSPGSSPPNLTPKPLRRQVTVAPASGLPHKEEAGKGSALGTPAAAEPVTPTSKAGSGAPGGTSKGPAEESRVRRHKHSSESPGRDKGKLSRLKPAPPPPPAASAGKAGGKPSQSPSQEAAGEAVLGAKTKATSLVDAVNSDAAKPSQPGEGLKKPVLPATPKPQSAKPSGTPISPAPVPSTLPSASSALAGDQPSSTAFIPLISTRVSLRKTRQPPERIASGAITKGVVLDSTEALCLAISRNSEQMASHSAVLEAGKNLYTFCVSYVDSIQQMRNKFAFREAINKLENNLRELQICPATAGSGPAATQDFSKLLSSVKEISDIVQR
Ras and Rab interactor 1/Tyrosine-protein kinase ABL1, sequence (Q13671 whole entry): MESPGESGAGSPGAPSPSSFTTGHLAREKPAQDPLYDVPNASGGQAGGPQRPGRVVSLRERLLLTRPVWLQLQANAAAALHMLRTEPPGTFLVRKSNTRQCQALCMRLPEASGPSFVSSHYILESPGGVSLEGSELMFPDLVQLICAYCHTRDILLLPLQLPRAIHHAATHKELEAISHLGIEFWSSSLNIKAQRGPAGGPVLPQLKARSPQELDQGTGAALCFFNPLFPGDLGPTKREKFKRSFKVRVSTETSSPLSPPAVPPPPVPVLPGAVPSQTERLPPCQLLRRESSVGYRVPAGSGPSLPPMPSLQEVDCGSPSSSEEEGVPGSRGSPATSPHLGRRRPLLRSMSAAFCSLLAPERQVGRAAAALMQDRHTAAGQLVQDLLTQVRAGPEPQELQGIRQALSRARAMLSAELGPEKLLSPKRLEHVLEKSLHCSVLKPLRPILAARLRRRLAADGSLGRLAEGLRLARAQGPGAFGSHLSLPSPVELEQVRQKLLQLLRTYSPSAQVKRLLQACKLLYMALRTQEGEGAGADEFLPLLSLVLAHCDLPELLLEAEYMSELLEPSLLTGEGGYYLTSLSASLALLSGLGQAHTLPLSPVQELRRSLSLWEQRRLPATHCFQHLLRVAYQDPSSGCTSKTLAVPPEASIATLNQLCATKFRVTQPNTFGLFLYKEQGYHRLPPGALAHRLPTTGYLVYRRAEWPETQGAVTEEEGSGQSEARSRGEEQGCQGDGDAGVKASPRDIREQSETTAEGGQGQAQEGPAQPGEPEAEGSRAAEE

[14] = molecular target: T8, DNA repair protein RAD52 homolog (Homo sapiens, UniProt P43351); type: functional, biochemical
T8 sequence (P43351 whole entry): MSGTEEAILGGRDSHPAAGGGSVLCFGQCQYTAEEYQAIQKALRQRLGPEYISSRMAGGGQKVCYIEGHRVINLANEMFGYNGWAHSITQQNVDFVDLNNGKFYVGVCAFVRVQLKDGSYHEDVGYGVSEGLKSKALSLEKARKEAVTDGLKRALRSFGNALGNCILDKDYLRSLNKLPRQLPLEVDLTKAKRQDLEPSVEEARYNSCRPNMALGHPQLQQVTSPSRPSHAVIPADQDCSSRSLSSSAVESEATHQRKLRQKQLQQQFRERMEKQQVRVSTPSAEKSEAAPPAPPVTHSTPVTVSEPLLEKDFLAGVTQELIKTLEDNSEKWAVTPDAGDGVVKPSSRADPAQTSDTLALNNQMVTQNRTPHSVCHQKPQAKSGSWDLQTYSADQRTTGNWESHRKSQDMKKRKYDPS

## c1ccc(CCNC2CCCCCC2)cc1
[1]
  IC50: 1.72 µM (active)
Cells [2]
  IC50: > 29.9 µM (inactive)
Cells [3]
  EC50: > 29.9 µM (inactive)
[4]
  EC50: 495 nM (active)

## COc1ccccc1Nc1c2ccccc2nc2ccccc12
[5]
  AC50: 29.8 µM (active)

## Cc1cc(NC(=O)COC(=O)CNC(=O)c2sc3ccccc3c2Cl)no1
[6]
  IC50: > 99 µM (inactive)
Caspase-3
  IC50: > 99 µM (inactive)
[7]
  IC50: > 99 µM (inactive)
[8]
  IC50: > 99 µM (inactive)

## O=C1C=CC2(O[C@H](c3ccccc3)[C@@H](c3ccccc3)O2)[C@H](Sc2ccccc2O)C1
[9]
  CC50: 50 µM (active)
[10]
  AC50: 4.16 µM (active)
[11]
  IC50: 4.1 µM (active)
[12]
  IC50: 43.8 µM (active)

## COc1ccc(CCNc2cc(=O)[nH]c(N)n2)cc1
[13]
  IC50: 5.15 µM (active)

## COc1ccc2nc(NC(=O)c3ccc4c(c3)OCCO4)sc2c1
[6]
  IC50: > 99 µM (inactive)
Caspase-3
  IC50: > 99 µM (inactive)
[7]
  IC50: > 99 µM (inactive)
[8]
  IC50: > 99 µM (inactive)

## Cc1csc(C(=O)Nc2nc3ccc(Cl)cc3s2)c1
[6]
  IC50: 89 µM (active)
Caspase-3
  IC50: 36 µM (active)
[7]
  IC50: > 99 µM (inactive)
[8]
  IC50: > 99 µM (inactive)

## CCOc1ccc(CCNC(=O)CN2C(=O)c3cccnc3Oc3ccc(Cl)cc32)cc1
[13]
  IC50: > 73.5 µM (inactive)

## COc1cccc(-c2cc3nc(NCCN4CCCC4)n(C)c(=O)c3s2)c1
[14]
  AC50: 5.5 µM (active)
[5]
  AC50: 45.4 µM (active)
